From PubChem BioAssay (NCI) come the findings set out here.

Each structure is given as a SMILES string.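 Exposure lasted 48 hours, with cells grown in 96-well plates and compounds tested at five concentrations. Here, GI50 denotes the concentration required for 50% inhibition of growth. TGI marks complete inhibition of growth.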

Holding throughout (assay): NCI anticancer screen, dose series, 48 h
The test system of assay [1] is 786-0 renal.
In assay [2] the test system is A498 renal.
Assay [3] concerns HCT-15 colon.
In assay [4] the test system is IGROV1 ovarian.
In assay [5] the test system is MDA-MB-231 breast.
For assay [6], the system named is OVCAR-4 ovarian.
In assay [7] the test system is OVCAR-8 ovarian.
Assay [8] has as its system RXF 393 renal.
Assay [9] relates to SK-MEL-28 melanoma.
Assay [10] deals with TK-10 renal.

As to `COc1cc(C)c(Cl)cc1C1=NN(c2ccc(S(N)(=O)=O)cc2)C(/C=C/c2ccccc2)C1` (stereo not given), the GI50 in assay [1] is 3.67 µM; in assay [2], 2.67 µM; in [3] it was 3.11 µM; in assay [4], 4.15 µM; in assay [5], 3.3 µM; in assay [6], 2.77 µM. For the same compound, the GI50 in assay [7] was 3.33 µM; in assay [8] it was 1.71 µM; in [9] it was 3.1 µM; in assay [10], 3.25 µM. Besides, the TGI in [1] is 11.9 µM; in [2], 5.71 µM; in assay [3], over 100 µM; in assay [4], 43.9 µM; in assay [5], 10.8 µM; in assay [6], 24.9 µM. The TGI in assay [7] turned out to be 19.1 µM; in assay [8], 3.5 µM; in assay [9], 11.4 µM; in assay [10], 11.5 µM.

Regarding `O=C1C(Cl)=C(Nc2cccc(Cl)c2)C(=O)N1Cc1ccccc1Cl`, the GI50 in assay [1] is 1.21 µM; in assay [2], 11.8 µM; in [3], 3.96 µM; in [4], 12.3 µM; in [5], 2.4 µM; in [6], 12.4 µM. Also, the GI50 in assay [7] is 1.82 µM; in assay [8], 1.26 µM; in assay [9], 9.95 µM; in [10], 12.1 µM. Also, the TGI in assay [1] was 16.3 µM; in [2] it was 24.8 µM; in assay [3], 38.2 µM; in assay [4], 73.8 µM; in assay [5], 15.1 µM; in assay [6], 42.4 µM. Also, the TGI in assay [7] is 17.1 µM; in assay [8] it was 6.53 µM; in assay [9], 34.2 µM; in assay [10] it was 30 µM.

Consider `Cc1ccccc1N=Nc1ccc(NC(=O)c2ccnn2C)c(C)c1`, for which the GI50 in assay [1] was 18.8 µM; in [2], 13.2 µM; in [3] it was 68.4 µM; in [4], 25.1 µM; in [5] it was 20.2 µM; in assay [6], 8.71 µM. In addition, the GI50 is 98.5 µM in assay [7], 18.5 µM in assay [8], over 100 µM in assay [9] and 20.5 µM in assay [10]. Also, the TGI in [1] was over 100 µM; in assay [2], 42.6 µM; in assay [3] it was over 100 µM; in [4], over 100 µM; in [5], 78.2 µM; in assay [6], over 100 µM. Also, the TGI was over 100 µM in assay [7], 47.2 µM in [8], over 100 µM in [9] and over 100 µM in [10].

In the case of `O=C(CN1CCN(CCCOc2c(-c3ccccc3)oc3ccccc3c2=O)CC1)Nc1ccc(Cl)cc1C(=O)c1ccccc1Cl`, the GI50 in [1] is 5.58 µM; in assay [2] it was 21.5 µM; in assay [3], 5.48 µM; in [4] it was 6.16 µM; in [5] it was 4.26 µM; in assay [6], 7.48 µM. In addition, the GI50 in assay [7] was 4.33 µM; in assay [8], 2.57 µM; in assay [9], 3.66 µM; in assay [10] it was 16.6 µM. Further, the TGI in assay [1] stood at 19.4 µM; in [2], 81.8 µM; in [3] it was 53.8 µM; in assay [4], 47.3 µM; in [5], 19.3 µM; in [6] it was 54.8 µM. Also, the TGI was 22.2 µM in assay [7], 8.79 µM in assay [8], 15.2 µM in assay [9] and 54.1 µM in [10].

As to `Nc1c(Br)cc(Br)c2c1[nH]c(=O)c1ccccc12`, the GI50 in assay [1] is 2.72 µM; in assay [2], 1.68 µM; in assay [3], 60.1 µM; in assay [4] it was 4.85 µM; in assay [5], 2.36 µM; in assay [6] it was 1.34 µM. The GI50 was 4.04 µM in assay [7], 4.7 µM in [8], over 45.9 µM in assay [9] and 3.67 µM in assay [10]. The TGI in [1] is 7.83 µM; in assay [2] it was 4.86 µM; in assay [3] it was over 100 µM; in assay [4], 38.5 µM; in assay [5], 61.1 µM; in assay [6], 3.43 µM. Moreover, the TGI in assay [7] is 26.5 µM; in assay [8], 22.1 µM; in assay [9], over 100 µM; in assay [10], 10.9 µM.

For `CCC(CO)Nc1nc(NCc2ccccc2O)c2ncn(C(C)C)c2n1` (stereo not given), the GI50 is 4.46 µM in [1]; 3.66 µM in assay [2]; 2.25 µM in assay [3]; 1.81 µM in assay [4]; 4.22 µM in assay [5]; 5.42 µM in [6]. Moreover, the GI50 in [7] was 4.21 µM; in [8] it was 3.29 µM; in assay [9], 2.35 µM; in assay [10], 10.2 µM. Also, the TGI was over 100 µM in [1]; 18 µM in [2]; over 100 µM in assay [3]; 5.64 µM in assay [4]; 38 µM in assay [5]; 33.6 µM in [6]. In addition, the TGI in assay [7] is over 100 µM; in [8], over 100 µM; in [9], 12.8 µM; in assay [10] it was over 100 µM.

For the compound `CCCc1cc2c(=O)c(C(=O)OC)c[nH]c2cc1N(CC)CC`, the GI50 was 19.6 µM in [1]; 82.3 µM in assay [2]; 76.7 µM in assay [3]; over 100 µM in [4]; 30.5 µM in assay [5]; 22.4 µM in assay [6]. In addition, the GI50 in [7] is 29.4 µM; in assay [8] it was 31.4 µM; in assay [9] it was 81.7 µM; in assay [10], 69.1 µM. Also, the TGI is 39.8 µM in [1]; over 100 µM in assay [2]; over 100 µM in [3]; over 100 µM in assay [4]; 84.5 µM in assay [5]; 74.5 µM in assay [6]. Further, the TGI in assay [7] was 95.7 µM; in assay [8] it was 85 µM; in assay [9] it was over 100 µM; in [10], over 100 µM.
